# In ChEMBL document CHEMBL1132779, “The design and synthesis of novel NK1/NK2 dual antagonists” (Bioorg Med Chem Lett, 2000):
# How the values were obtained:
# [1] = target: Substance-P receptor (Homo sapiens, UniProt P25103); experiment: Binding affinity towards Tachykinin receptor 1 in CHO cells using [3H]-Sar SP as radioligand; assay type: cell-based
# [2] = target: T1, Substance-K receptor (Homo sapiens, UniProt P21452); experiment: Binding affinity towards Tachykinin receptor 2 in CHO cells using [3H]-neurokinin A as radioligand; assay type: cell-based
# T1 sequence (P21452 whole entry): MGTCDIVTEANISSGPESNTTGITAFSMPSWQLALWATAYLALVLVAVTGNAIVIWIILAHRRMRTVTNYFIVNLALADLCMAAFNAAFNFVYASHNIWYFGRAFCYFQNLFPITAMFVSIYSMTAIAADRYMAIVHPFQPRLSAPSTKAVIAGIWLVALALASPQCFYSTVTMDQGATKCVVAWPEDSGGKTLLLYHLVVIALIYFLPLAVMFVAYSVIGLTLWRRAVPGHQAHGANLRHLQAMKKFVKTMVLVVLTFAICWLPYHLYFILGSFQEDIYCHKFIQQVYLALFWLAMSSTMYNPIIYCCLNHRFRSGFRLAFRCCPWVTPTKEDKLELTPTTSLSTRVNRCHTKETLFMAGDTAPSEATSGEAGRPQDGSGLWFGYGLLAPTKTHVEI
# [3] = target: T2, Substance-K receptor (Homo sapiens) (UniProt P21452); conditions: 0.1 uM
# T2 sequence (whole entry): T1 sequence (P21452 whole entry)
# Description: Inhibitory activity against Tachykinin receptor 2 at a concentration of 0.1 uM
# [4] = target: T2, Substance-K receptor (Homo sapiens); conditions: 1 uM
# Description: Inhibitory activity against Tachykinin receptor 2 at a concentration of 1 uM
# Substance-P receptor, sequence (P25103 whole entry): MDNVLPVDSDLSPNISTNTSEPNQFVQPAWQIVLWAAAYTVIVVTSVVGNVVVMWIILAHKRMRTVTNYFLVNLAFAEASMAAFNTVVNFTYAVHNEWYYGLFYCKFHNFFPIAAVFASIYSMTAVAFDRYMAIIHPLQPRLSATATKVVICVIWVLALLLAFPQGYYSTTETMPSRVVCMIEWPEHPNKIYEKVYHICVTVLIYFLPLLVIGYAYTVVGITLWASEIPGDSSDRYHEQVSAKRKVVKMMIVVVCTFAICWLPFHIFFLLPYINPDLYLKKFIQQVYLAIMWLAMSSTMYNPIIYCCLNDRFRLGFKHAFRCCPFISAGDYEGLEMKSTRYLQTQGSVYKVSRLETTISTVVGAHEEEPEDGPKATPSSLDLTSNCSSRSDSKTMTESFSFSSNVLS
Ki [1],Ki [2],inhibition [3],Structure (SMILES),inhibition [4]
34 nM,358 nM,–,O/N=C(/COCc1cc(C(F)(F)F)cc(C(F)(F)F)c1)C(CCN1CCC(O)(c2ccccc2)CC1)c1ccc(Cl)c(Cl)c1 (configuration not stated),–
5 nM,–,10%,NC(=O)CN[C@H](COCc1cc(C(F)(F)F)cc(C(F)(F)F)c1)[C@@H](CCN1CCC(O)(c2ccccc2)CC1)c1ccc(Cl)c(Cl)c1,–
0.7 nM,–,27%,NC(=O)CN[C@@H](COCc1cc(C(F)(F)F)cc(C(F)(F)F)c1)[C@@H](CCN1CCC(O)(c2ccccc2)CC1)c1ccc(Cl)c(Cl)c1,–
9 nM,34 nM,–,NC(=O)CN[C@@H](COCc1cc(C(F)(F)F)cc(C(F)(F)F)c1)[C@H](CCN1CCC(O)(c2ccccc2)CC1)c1ccc(Cl)c(Cl)c1,–
4 nM,34 nM,–,NC(=O)CNC(COCc1cc(C(F)(F)F)cc(C(F)(F)F)c1)C(CCN1CCC(O)(c2ccccc2)CC1)c1ccc(Cl)c(Cl)c1 (configuration not stated),–
24 nM,122 nM,–,O/N=C(\COCc1cc(C(F)(F)F)cc(C(F)(F)F)c1)C(CCN1CCC(O)(c2ccccc2)CC1)c1ccc(Cl)c(Cl)c1 (configuration not stated),–
–,0.5 nM,–,CC(=O)NC1(c2ccccc2)CCN(CC[C@H](CN(C)C(=O)c2ccccc2)c2ccc(Cl)c(Cl)c2)CC1 [SAREDUTANT],–
0.9 nM,–,–,NC(=O)CN[C@H](COCc1cc(C(F)(F)F)cc(C(F)(F)F)c1)C(c1ccccc1)c1ccccc1,–

Structure (SMILES),Ki [1],Ki [2],inhibition [3],inhibition [4]
CO/N=C(\COCc1cc(C(F)(F)F)cc(C(F)(F)F)c1)[C@H](CCN1CCC(O)(c2ccccc2)CC1)c1ccc(Cl)c(Cl)c1,20 nM,7 nM,–,–
CO/N=C(\COCc1cc(C(F)(F)F)cc(C(F)(F)F)c1)C(CCN1CCC(O)(c2ccccc2)CC1)c1ccc(Cl)c(Cl)c1 (configuration not stated),25 nM,21 nM,–,–
CO/N=C(\COCc1cc(C(F)(F)F)cc(C(F)(F)F)c1)[C@@H](CCN1CCC(O)(c2ccccc2)CC1)c1ccc(Cl)c(Cl)c1,33 nM,397 nM,–,–
CO/N=C(/COCc1cc(C(F)(F)F)cc(C(F)(F)F)c1)C(CCN1CCC(O)(c2ccccc2)CC1)c1ccc(Cl)c(Cl)c1 (configuration not stated),25 nM,–,–,35%
